≈ marks a conversion by molar mass, not a printed value. Entries after “also recorded” stand apart in the source; their conditions may differ. Like-named read-outs stand apart in the source and are kept apart here.
Assays:
Assay type in all cases: cell-based
Streptococcus agalactiae = test: Broth microdilution MIC, 20 clinical isolates
Method: (§1) Minimal inhibitory concentration (MIC) values were determined by broth microdilution or agar dilution in accordance with guidelines from the Clinical and Laboratory Standards Institute (CLSI; (1) “Methods for Dilution Antimicrobial Susceptibility Tests for Bacteria That Grow Aerobically; Approved Standard; 11th ed.” CLSI standard M07-A11, 2018; (2) “Performance Standards for Antimicrobial Susceptibility Testing; Twenty-Eighth Informational Supplement,” CLSI document M100-S28, 2018; and (3) “Methods for Antimicrobial Susceptibility Testing of Anaerobic Bacteria; Approved Standard—Eighth Edition,” CLSI document M11-A8, 2012).
(§2) Tested aerobically by broth microdilution: • Escherichia coli, n=50 • Klebsiella spp., n=50 • Pseudomonas aeruginosa, n=50 • Streptococcus spp., n=50 • Staphylococcus aureus, n=50 • Enterococcus faecalis, n=50 • Enterobacter aerogenes, n=50 • Proteus mirabilis, n=50
(§3) Broth microdilution testing of aerobic bacteria was conducted in cation-adjusted Mueller Hinton broth (MHBII). For testing streptococci, lysed horse blood (LHB) was added to MHBII broth at a final concentration of 3%. Where LHB was used, it was added after filtering.
(§4) Broth microdilution susceptibility testing in 96-well microplates was conducted in accordance with CLSI methods (1) and (2). Automated liquid handlers were used to conduct serial dilutions and liquid transfers, including the Multidrop 384 (Labsystems, Helsinki, Finland), Biomek 2000, and the Biomek FX (Beckman Coulter, Fullerton, Calif.). All wells in columns 2 through 12 of a standard 96-well microdilution plate (Costar 3795) were filled with 150 μL of the appropriate diluent. Then, 300 μL of the test agents were added to the wells of column 1 of the plates at 100× the highest final concentration to be tested. Serial two-fold dilutions were made across the rows through column 11 using the Biomek 2000. The wells of column 12 contained no drug and served as the growth control wells. This plate served as the “mother plate” from which MIC assay plates or “daughter plates” were made.
(§5) The daughter plates were loaded with 190 μL per well of the appropriate medium using the Multidrop 384. The daughter plates were created using the Biomek FX which transferred 2 μL of drug solution from each well of a mother plate to each corresponding well of the daughter plate in a single step. A standardized inoculum of each test organism was prepared per CLSI methods (1) to equal a 0.5 McFarland standard, followed by a dilution of 1:20 for aerobes and 1:10 for anaerobes. The plates were then inoculated with 10 μL of the diluted inoculum using the Biomek 2000 from low to high drug concentration, resulting in a final concentration of approximately 5×10^5 CFU/mL per well. An un-inoculated plate was incubated in parallel for each medium for the purpose of assessing solubility of the drug in the test media.
(§6) Inoculated plates were stacked 3 or 4 high, covered with a sterile lid on the top plate, placed into boxes with CO2 planchets (streptococci) or plastic bags (all other isolates). Plates were incubated at 35° C. for 16-24 hr in ambient air for aerobes or for 42-48 hr in the anaerobic environment of the Bactron II anaerobe chamber (Sheldon Manufacturing Co.; Cornelius, Oreg.). Following incubation, the microplates were removed from the incubator and viewed from the bottom using a plate viewer. The MIC values were read and recorded as the lowest concentration of drug that inhibited visible growth of the organism as per CLSI methods (1) and (2).

Streptococcus spp. = test: Broth microdilution MIC, 54 clinical isolates
Method: as §1, §2, §3, §4, §5, §6

[1] = test system: Prevotella spp. clinical isolates; test: MIC distribution against clinical isolates; settings: 30 Prevotella spp. isolates
[2] = test system: Bacteroides non fragilis clinical isolates; test: MIC distribution against clinical isolates; settings: 29 Bacteroides non-fragilis isolates
Streptococcus pyogenes = test: Broth microdilution MIC, 19 clinical isolates
Method: as §1, §2, §3, §4, §5, §6

[3] = test system: Streptococcus spp. clinical isolates; test: MIC distribution against clinical isolates; settings: 54 Streptococcus spp. isolates
Source text: (n=19 S. pyogenes, n=20 S. agalactiae and n=20 Viridans group Streptococcus) clinical isolates (μg/mL).
As used herein, “minimum inhibitory concentration” or “MIC” refers to the lowest concentration of an antimicrobial agent, for example, an antimicrobial agent as described herein, required to inhibit the growth of an organism. […] “MIC90” represents the MIC value at which ≥90% of the strains within a test population are inhibited; the 90th percentile.
Many susceptibility testing methods are known in the art and can be used as described herein (see, e.g., Jorgensen and Ferraro (2009) Clinical Infectious Diseases 49:1749-1755; and Maurer et al. (2017) Infectious Disease Reports 9:6839; the entire contents of each of the foregoing are incorporated herein by reference). For example, antimicrobial susceptibility can be determined using conventional culture based methods such as the broth or agar dilution test. In these dilution tests, the bacterial isolate of interest is inoculated onto different media that include serial dilutions of an antimicrobial agent, and incubated under appropriate conditions (e.g., overnight at 37° C.) to allow for growth to occur. Following the incubation period, the media is examined to determine bacterial growth. The lowest concentration of antibiotic that prevents growth represents the minimal inhibitory concentration (MIC). Broth dilution tests can be miniaturized and mechanized allowing for reproducibility and high throughput.

[4] = 20 Streptococcus agalactiae clinical isolates
[5] = 54 Streptococcus spp. clinical isolates

Work on `C[C@@H](O)[C@H]1C(=O)N2C(C(=O)O)=C(S[C@@H]3CN[C@H](C(=O)N(C)C)C3)[C@H](C)[C@H]12` [meropenem] yielded an MIC50 (Streptococcus agalactiae; [4]) of 0.03 µg/mL (≈ 0.0782 µM), an MIC90 (Streptococcus agalactiae; [4]) of 0.03 µg/mL (≈ 0.0782 µM) and an MIC range (Streptococcus agalactiae; [4]) of 0.015 to 0.06 µg/mL. The “% S” value (Streptococcus agalactiae; 20 Streptococcus agalactiae clinical isolates, MXF by FDA breakpoints) was 100%, the MIC50 (Streptococcus agalactiae; Streptococcus agalactiae, read-out: MIC50) was 0.03 µg/mL (≈ 0.0782 µM) and the MIC90 (Streptococcus agalactiae; Streptococcus agalactiae, read-out: MIC90) was 0.03 µg/mL (≈ 0.0782 µM). For the same compound, the Mode (Streptococcus agalactiae; modal MIC, 20 Streptococcus agalactiae clinical isolates) was 0.03 µg/mL, the isolates susceptible (Streptococcus spp.) was “All” and the “relative activity among drugs tested” value (Streptococcus spp.) was “most active drug evaluated; also recorded: most active agent”. For the same compound, the MIC50 (Streptococcus spp.; [5]) was 0.015 µg/mL (≈ 0.0391 µM), the MIC90 (Streptococcus spp.; [5]) was 0.03 µg/mL (≈ 0.0782 µM) and the MIC range (Streptococcus spp.; [5]) was ≤2 to 500 ng/mL. The “% S” value (Streptococcus spp.; 54 Streptococcus spp. clinical isolates, MXF by FDA breakpoints) was 100%, the MIC50 (Streptococcus spp.; Streptococcus, read-out: MIC50) was 0.015 µg/mL (≈ 0.0391 µM) and the MIC90 (Streptococcus spp.; Streptococcus, read-out: MIC90) was 0.03 µg/mL (≈ 0.0782 µM). The Mode (Streptococcus spp.; modal MIC, 54 Streptococcus spp. clinical isolates) was 0.03 µg/mL, the “Cumulative percentage of isolates inhibited at MIC” value ([1]; MIC 0.015 μg/mL) was 16.7% and the “Number of test isolates at MIC” value ([1]; MIC 0.015 μg/mL) was 3. The “Cumulative percentage of isolates inhibited at MIC” value ([1]; MIC 0.03 μg/mL) was 36.7%, the “Number of test isolates at MIC” value ([1]; MIC 0.03 μg/mL) was 6 and the “Cumulative percentage of isolates inhibited at MIC” value ([1]; MIC 0.06 μg/mL) was 76.7%. For the same compound, the “Number of test isolates at MIC” value ([1]; MIC 0.06 μg/mL) was 12, the “Cumulative percentage of isolates inhibited at MIC” value ([1]; MIC ≤0.008 μg/mL) was 6.7% and the “Number of test isolates at MIC” value ([1]; MIC ≤0.008 μg/mL) was 2. For the same compound, the “Cumulative percentage of isolates inhibited at MIC” value ([2]; MIC 0.06 μg/mL) was 6.9%, the “Number of test isolates at MIC” value ([2]; MIC 0.06 μg/mL) was 2 and the “Cumulative percentage of isolates inhibited at MIC” value ([2]; MIC 0.5 μg/mL) was 75.9%. The “Number of test isolates at MIC” value ([2]; MIC 0.5 μg/mL) was 10, the “Cumulative percentage of isolates inhibited at MIC” value ([2]; MIC 1 μg/mL) was 82.8% and the “Number of test isolates at MIC” value ([2]; MIC 1 μg/mL) was 2. The “Cumulative percentage of isolates inhibited at MIC” value ([2]; MIC 2 μg/mL) was 93.1%, the “Number of test isolates at MIC” value ([2]; MIC 2 μg/mL) was 3 and the “Cumulative percentage of isolates inhibited at MIC” value ([2]; MIC 4 μg/mL) was 96.6%. For the same compound, the “Number of test isolates at MIC” value ([2]; MIC 4 μg/mL) was 1, the “Cumulative percentage of isolates inhibited at MIC” value ([2]; MIC >8 μg/mL) was 100.0% and the “Number of test isolates at MIC” value ([2]; MIC >8 μg/mL) was 1. The “% S” value (Streptococcus pyogenes) was 100%, the MIC range (Streptococcus pyogenes) was ≤0.002-0.03^ μg/mL and the Mode (Streptococcus pyogenes) was 0.004 µg/mL. The MIC50 (Streptococcus pyogenes; Streptococcus pyogenes, read-out: MIC50) was 4 ng/mL (≈ 0.0104 µM), the MIC90 (Streptococcus pyogenes; Streptococcus pyogenes, read-out: MIC90) was 8 ng/mL (≈ 0.0209 µM) and the “Cumulative percentage of isolates inhibited at MIC” value ([3]; MIC 0.004 μg/mL) was 29.6%. For the same compound, the “Number of test isolates at MIC” value ([3]; MIC 0.004 μg/mL) was 15, the “Cumulative percentage of isolates inhibited at MIC” value ([3]; MIC 0.008 μg/mL) was 40.7% and the “Number of test isolates at MIC” value ([3]; MIC 0.008 μg/mL) was 6. For the same compound, the “Cumulative percentage of isolates inhibited at MIC” value ([3]; MIC 0.015 μg/mL) was 57.4%, the “Number of test isolates at MIC” value ([3]; MIC 0.015 μg/mL) was 9 and the “Cumulative percentage of isolates inhibited at MIC” value ([3]; MIC 0.03 μg/mL) was 92.6%. The “Number of test isolates at MIC” value ([3]; MIC 0.03 μg/mL) was 19, the “Cumulative percentage of isolates inhibited at MIC” value ([3]; MIC 0.06 μg/mL) was 94.4% and the “Number of test isolates at MIC” value ([3]; MIC 0.06 μg/mL) was 1. For the same compound, the “Cumulative percentage of isolates inhibited at MIC” value ([3]; MIC 0.5 μg/mL) was 100.0%, the “Number of test isolates at MIC” value ([3]; MIC 0.5 μg/mL) was 2 and the “Cumulative percentage of isolates inhibited at MIC” value ([3]; MIC […]) was 96.3%. For the same compound, the “Number of test isolates at MIC” value ([3]; MIC […]) was 1, the “Cumulative percentage of isolates inhibited at MIC” value ([3]; MIC ≤0.002 μg/mL) was 1.9% and the “Number of test isolates at MIC” value ([3]; MIC ≤0.002 μg/mL) was 1.
